Paper PMC9889419 (Pharmacological Reports, 2022)
“And” between values parts separate entries of the source, which are not always exact repeats. Identical values can stand only once. Counter-ions that a name gives are not always drawn. Like-named read-outs stand apart in the source and are kept apart here. Marks after values point to notes of the source that are not given here.

Experiments:
CYP1A2 = molecular target: T1, CYP1A2 (Homo sapiens, UniProt P05177); assay: Human cytochrome P450 inhibition (human liver microsomes); assay type: in vitro ADME
T1 construct: tissue celsis F008085-CST; host or cells: human liver microsomes
T1 sequence (P05177 1-516): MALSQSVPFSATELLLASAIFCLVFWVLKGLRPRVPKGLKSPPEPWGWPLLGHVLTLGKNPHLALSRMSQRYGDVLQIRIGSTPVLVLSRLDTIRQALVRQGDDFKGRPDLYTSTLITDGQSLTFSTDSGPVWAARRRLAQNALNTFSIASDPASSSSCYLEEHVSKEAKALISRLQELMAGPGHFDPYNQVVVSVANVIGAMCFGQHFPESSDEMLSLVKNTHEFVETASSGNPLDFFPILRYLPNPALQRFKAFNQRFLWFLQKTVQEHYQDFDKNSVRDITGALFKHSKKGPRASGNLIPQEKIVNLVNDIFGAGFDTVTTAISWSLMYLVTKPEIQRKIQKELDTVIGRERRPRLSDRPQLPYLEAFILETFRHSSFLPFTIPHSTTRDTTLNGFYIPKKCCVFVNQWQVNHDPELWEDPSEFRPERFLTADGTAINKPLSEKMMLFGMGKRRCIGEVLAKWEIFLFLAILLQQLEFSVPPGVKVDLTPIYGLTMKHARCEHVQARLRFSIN
Description: The selective reactions utilized for each enzyme were as follows: CYP1A2—phenacetin deethylation, CYP2A6—coumarin 7-hydroxylation, CYP2B6—7-ethoxy-4-trifluoromethyl coumarin O-deethylation, CYP2C9—diclofenac 4-hydroxylation, CYP2C19—S-mephenytoin 4-hydroxylation, CYP2D6—bufuralol 1’-hydroxylation, CYP2E1—chlorzoxazone 6-hydroxylation, CYP3A4—testosterone 6β-hydroxylation. For inhibitory evaluation, human liver microsomes and the tested compound (added in methanol as a solvent) were incubated under aerobic conditions with cytochrome P450 isozyme-selective substrates and excess NADPH at 37 °C. Incubations were for time periods over which the reaction in the absence of the compound, were determined to be linear, and proportional to the protein concentration. The human liver microsomes used were selected from the bank of those commercially available to be especially rich in the amount of the cytochrome P450 isozyme under investigation. However, it is important to note that the microsomes contained all the other isozymes in addition, and if reaction/substrate was less than specific, the other isozymes may have contributed to a minor extent to the enzyme activity determined. Following incubation, the reaction was terminated, an internal standard added, the metabolic products extracted and separated by reverse phase HPLC. Each assay was performed in duplicate, and the mean value calculated. The HPLC elutions were monitored by UV absorbance for all CYP reactions except those for CYP2A6, CYP2B6 and CYP2D6 where fluorescence monitoring was employed. Quantification was by comparison with authentic metabolites.

rats = assay: Sciatic nerve ligation (SNL) model, von Frey test; assay type: in vivo; settings: rats; for Threshold ± S.E.M. / % Pre-Drug ± S.E.M.: 6 mg/kg b.w., i.p.
guinea pigs = assay: Infiltration anesthesia (intradermal wheal test); assay type: in vivo
Description: A painful reaction to a prick of the skin at the centre of the wheal three times and every 5 s with 5 min intervals during the first 30 min of observation was tested. The experiment was continued to achieve a return of a reaction to the prick. The control wheal was done by an intradermal injection of 0.1 mL of 0.9% NaCl [25]. Local anesthesia was determined by calculating the ratio of the number of positive responses (no flinch) to the number of negative responses (flinch).

Tissue distribution = assay type: in vivo, rats; settings: for t0.5λz / Cmax / MRT / Tmax / Kp / k el: 5 mg/kg iv; for Kp: read-out: Kp (tissue-to-plasma AUC ratio); for k el: read-out: λz (converted)
Description: Pharmacokinetic study design. Male Wistar rats (250–300 g) bred in-house from progenitors obtained from Charles River Laboratories (Sulzfed, Germany) were used in this study. […] Moreover, this compound dissolved in the same solvent was administered orally (po) by oral gavage at two doses (50 and 100 mg/kg) (n = 4). Blood samples were collected from the catheter at various time points up to 5 h. […] The animals were anaesthetized (50/7.5 mg/kg ketamine/xylazine, ip) and sacrificed by decapitation at 5, 15, 30, 60, 120, 180, and 300 min after compound administration (n = 4 per time point). Blood was collected into heparinized tubes and organs such as liver, brain, lungs, kidneys, and heart were harvested. The blood samples were centrifuged at 4000 rpm for 10 min (EBA 12R, Hettich, Germany). Plasma and organs were stored at − 80 °C until analysis.
Before analysis, tissue samples were homogenized in phosphate-buffered saline, pH 7.4 (1:4, w/v) with a tissue homogenizer (TH220; Omni International, Inc., Warrenton, VA, USA). Plasma (100 μL) or homogenate samples (500 μL) were mixed with an internal standard (IS) solution (R-( +)-propranolol, 4 μg/mL in methanol). Then, 20 μL of sodium carbonate (0.125 M) was added to each tube and the samples were extracted with 3 mL of diethyl ether by vortexing for 1 min. After centrifugation (3000 rpm, 15 min), the organic phase was transferred to a new tube and evaporated to dryness under a gentle stream nitrogen at 37 °C in a water bath. The dry residue was reconstituted in 100 μL of acetonitrile. Subsequently, 50 μL of 0.2 M borate buffer (pH = 7.0) and 50 μL of 6 mM FMOC-Cl solution in acetonitrile were added. […] The reaction was stopped by the addition of 0.1 M solution of glycine in water (30 μL) and vortexing for 1 min. The reaction mixture was transferred directly into the autosampler vials. The chromatographic system (Merck-HITACHI, Japan) consisted of an L-2485 spectrofluorimetric detector operating at the excitation and emission wavelengths of 267 and 316 nm, respectively, an L-2130 pump, an L-2350 column oven, and an L-2200 autosampler. The EZChrom Elite Client/Server version 3.2 (Agilent Technologies Inc.) was used for data acquisition and processing. […] The column temperature was maintained at 50 °C. The mobile phase consisted of a mixture of acetonitrile and water (67:33, v/v), and pumped at a flow rate of 1 mL/min.
Pharmacokinetic data analysis. Plasma and tissue concentration versus time profiles were analyzed by the non-compartmental approach in Phoenix WinNonlin v. 6.3 software (Pharsight Corporation, Mountain View, CA, USA). The peak concentration (Cmax) and the time to reach Cmax (tmax) were obtained directly from individual concentration–time profiles. The initial concentration (C0) after an iv dosing was obtained by extrapolation to zero time. The linear trapezoidal rule was applied to calculate the areas under the concentration–time curve (AUC) from the time of dosing to the last measured data point (AUC0-t) or infinity (AUC0-∞). The terminal slope (λz) was estimated by linear regression and the terminal half-life (t0.5λz) was calculated as ln2/λz. The volume of distribution based on the terminal phase (Vz) was calculated as: Dose/(λz ∙ AUC0-∞), whereas clearance (CL) was obtained from the following equation: Dose/AUC0-∞. The mean residence time (MRT) was defined as: AUMC0-∞/AUC0-∞, where AUMC is the area under the first moment curve. The absolute bioavailability (Fa) was calculated according to the equation: (AUCpo./Dosepo)/(AUCiv/Doseiv).

mice = assay: Hot plate test; assay type: in vivo
Description: The hot plate test was performed as previously described. The mice were ip pre-treated 30 min before experiment either with the compound, dissolved in saline (at doses 10, 30 and 100 mg/kg) or vehicle and were placed on a hot plate set at 55 °C (Hot plate, Omega 2A, Poland). Latency to nocifensive reaction (hind paw licking or jumping) of mice was recorded. The mouse was removed from the plate immediately upon licking a hind paw/jumping or if no response occurred within 60 s (cut-off).

hNav1.3 sodium channel = molecular target: T2, hNav1.3 sodium channel (Homo sapiens, UniProt Q9NY46); assay: Nav channel electrophysiology (IonWorks Quattro); assay type: cell-based
T2 construct: host or cells: CHO cells
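Throughout, for Cmax: organ homogenates in PBS analysed by HPLC after FMOC-Cl derivatization, non-compartmental analysis, Kp as tissue over plasma AUC, half-life taken as ln2 divided by λz.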
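Throughout, for concentration in rat brain (approximated): organ homogenates in PBS analysed by HPLC after FMOC-Cl derivatization, non-compartmental analysis, Kp as tissue over plasma AUC, half-life taken as ln2 divided by λz.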
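Throughout, for concentration in rat brain: organ homogenates in PBS analysed by HPLC after FMOC-Cl derivatization, non-compartmental analysis, Kp as tissue over plasma AUC, half-life taken as ln2 divided by λz.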
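Throughout, for t0.5λz: organ homogenates in PBS analysed by HPLC after FMOC-Cl derivatization, non-compartmental analysis, Kp as tissue over plasma AUC, half-life taken as ln2 divided by λz.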

T2 sequence (Q9NY46 whole entry): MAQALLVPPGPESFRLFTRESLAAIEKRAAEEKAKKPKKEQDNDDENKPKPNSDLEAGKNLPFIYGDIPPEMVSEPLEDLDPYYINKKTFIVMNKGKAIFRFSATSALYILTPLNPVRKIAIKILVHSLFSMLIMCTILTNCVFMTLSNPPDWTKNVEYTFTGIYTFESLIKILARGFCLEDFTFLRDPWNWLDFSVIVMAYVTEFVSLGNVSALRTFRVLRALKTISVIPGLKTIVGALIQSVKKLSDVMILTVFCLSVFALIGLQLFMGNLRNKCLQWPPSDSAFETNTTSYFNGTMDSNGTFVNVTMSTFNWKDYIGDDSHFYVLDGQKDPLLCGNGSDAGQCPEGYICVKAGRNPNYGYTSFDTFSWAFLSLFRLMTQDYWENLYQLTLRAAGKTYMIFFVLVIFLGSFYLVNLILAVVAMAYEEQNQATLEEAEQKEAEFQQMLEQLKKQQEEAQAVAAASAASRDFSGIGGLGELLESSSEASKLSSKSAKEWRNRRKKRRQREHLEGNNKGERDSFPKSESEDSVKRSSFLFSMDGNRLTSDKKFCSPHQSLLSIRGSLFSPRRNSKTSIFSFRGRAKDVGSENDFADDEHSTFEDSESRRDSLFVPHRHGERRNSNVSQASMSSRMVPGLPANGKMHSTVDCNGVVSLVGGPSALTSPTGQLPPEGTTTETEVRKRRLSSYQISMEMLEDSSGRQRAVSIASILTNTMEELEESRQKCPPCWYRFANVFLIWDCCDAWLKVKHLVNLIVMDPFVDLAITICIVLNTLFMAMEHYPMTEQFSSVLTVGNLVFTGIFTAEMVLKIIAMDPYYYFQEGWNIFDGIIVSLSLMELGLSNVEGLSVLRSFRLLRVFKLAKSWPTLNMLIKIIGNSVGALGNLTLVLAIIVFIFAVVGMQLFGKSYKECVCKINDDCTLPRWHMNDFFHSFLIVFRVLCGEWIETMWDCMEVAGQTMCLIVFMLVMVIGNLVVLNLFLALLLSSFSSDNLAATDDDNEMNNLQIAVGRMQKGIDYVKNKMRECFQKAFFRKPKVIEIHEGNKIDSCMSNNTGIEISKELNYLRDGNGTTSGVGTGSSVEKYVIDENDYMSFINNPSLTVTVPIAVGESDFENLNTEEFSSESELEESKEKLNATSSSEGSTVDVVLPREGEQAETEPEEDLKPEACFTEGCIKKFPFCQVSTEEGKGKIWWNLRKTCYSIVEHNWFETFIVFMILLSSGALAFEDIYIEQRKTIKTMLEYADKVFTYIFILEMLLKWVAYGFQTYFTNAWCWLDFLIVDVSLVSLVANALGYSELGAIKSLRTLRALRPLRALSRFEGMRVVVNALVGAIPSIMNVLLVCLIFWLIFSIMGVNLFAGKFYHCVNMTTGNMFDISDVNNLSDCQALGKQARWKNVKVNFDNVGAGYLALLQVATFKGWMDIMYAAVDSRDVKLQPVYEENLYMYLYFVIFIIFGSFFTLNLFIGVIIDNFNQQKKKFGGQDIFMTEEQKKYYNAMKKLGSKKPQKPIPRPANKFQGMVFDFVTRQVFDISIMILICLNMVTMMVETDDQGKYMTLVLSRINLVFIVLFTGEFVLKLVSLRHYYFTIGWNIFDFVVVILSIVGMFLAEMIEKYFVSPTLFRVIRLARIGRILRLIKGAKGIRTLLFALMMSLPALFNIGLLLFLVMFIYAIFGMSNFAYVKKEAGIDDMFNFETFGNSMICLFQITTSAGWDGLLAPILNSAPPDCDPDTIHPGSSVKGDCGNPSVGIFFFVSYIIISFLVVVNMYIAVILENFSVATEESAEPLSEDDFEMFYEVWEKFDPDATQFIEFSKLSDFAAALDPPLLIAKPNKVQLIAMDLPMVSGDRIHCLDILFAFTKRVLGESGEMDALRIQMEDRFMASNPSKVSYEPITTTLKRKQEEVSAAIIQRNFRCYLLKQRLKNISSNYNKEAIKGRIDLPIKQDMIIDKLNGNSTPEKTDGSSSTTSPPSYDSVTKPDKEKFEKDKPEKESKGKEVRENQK

With CCC(CO)NCCOc1c(C)cccc1Cl (stereo not shown) [Compound 4, R,S-2-((2-(2-chloro-6-methylphenoxy)ethyl)amino)butan-1-ol] the Inhibition type (CYP1A2) was “Mixed/competitive”, the Ki (CYP1A2) was 23 µM and the “% inhibition of 500 µM concentration” value (CYP1A2; 500 µM, substrate at 2 µM) was 65 (substrate at 2 µM) %.

In the case of CCC(CO)NCCOc1c(C)cccc1Cl (stereo not shown) [KM-408, R,S-2-((2-(2-chloro-6-methylphenoxy)ethyl)amino)butan-1-ol hydrochloride], the “Threshold ± S.E.M.” value (rats; 0.0 h (pre-drug)) is reported as 2.88 ± 0.59 g, the “% Pre-Drug ± S.E.M.” value (rats; 0.5 h) is reported as 131 ± 15% and the “Threshold ± S.E.M.” value (rats; 0.5 h) is reported as 3.07 ± 0.51 g. For the same compound, the “% Pre-Drug ± S.E.M.” value (rats; 1.0 h) was 202 ± 19%, the “Threshold ± S.E.M.” value (rats; 1.0 h) was 5.94 ± 1.19 g and the “% Pre-Drug ± S.E.M.” value (rats; 2.0 h) was 301 ± 45 %. For the same compound, the “Threshold ± S.E.M.” value (rats; 2.0 h) was 8.23 ± 1.56 g, the “% Pre-Drug ± S.E.M.” value (rats; 4.0 h) was 260 ± 39 % and the “Threshold ± S.E.M.” value (rats; 4.0 h) was 7.09 ± 1.31 g. For the same compound, the “% Pre-Drug ± S.E.M.” value (rats; 6.0 h) was 186 ± 31%, the “Threshold ± S.E.M.” value (rats; 6.0 h) was 5.34 ± 1.32 g and the “SNL TPE” value (rats; ip) was 2 h. The “SNL: active at” value (rats; ip, von Frey test) was 6.0 mg/kg and 6 mg/kg, the “Inhibition of pain reaction” value (guinea pigs; 0.125%, 30 min) was 33.3* % and the “Inhibition of pain reaction” value (guinea pigs; 0.125%, 60 min) was 38.9* %. For the same compound, the “Inhibition of pain reaction” value (guinea pigs; 0.125%, 120 min) was 33.3* %, the “Inhibition of pain reaction” value (guinea pigs; 0.5%, 30 min) was 93.3*** % and the “Inhibition of pain reaction” value (guinea pigs; 0.5%, 60 min) was 81.2*** %. For the same compound, the “Inhibition of pain reaction” value (guinea pigs; 0.5%, 120 min) was 66.7*** %, the “Inhibition of pain reaction” value (guinea pigs; 0.5%, 240 min) was 20.0% and the “Inhibition of pain reaction” value (guinea pigs; […], 30 min) was 81.2*** %. For the same compound, the “Inhibition of pain reaction” value (guinea pigs; […], 60 min) was 64.7** %, the “Inhibition of pain reaction” value (guinea pigs; […], 120 min) was 70.6*** % and the “Inhibition of pain reaction” value (guinea pigs; […], 240 min) was 33.3* %. The “infiltration anesthesia: active at” value (guinea pigs; guinea pigs) was 0.125%, the t0.5λz (Tissue distribution; Brain) was 28.56 min and the t0.5λz (Tissue distribution; Heart) was 41.30 min. It also gave a t0.5λz (Tissue distribution; Kidneys) of 16.23 min, a t0.5λz (Tissue distribution; Liver) of 41.99 min and a t0.5λz (Tissue distribution; Lungs) of 30.84 min. The “concentration in rat brain (approximated)” value (Tissue distribution; 2 h after iv, tissue density 1 g/mL assumed) was ~2.2*10^–7 M, the concentration at 2 h (Tissue distribution; male, Wistar, rat, brain, 5 mg/kg, 2 h after iv administration) was 64.9 ng/g and the Cmax (Tissue distribution; male, Wistar, rat, Brain) was 1770 ng/g. The MRT (Tissue distribution; male, Wistar, rat, Brain) was 37.9 min, the Tmax (Tissue distribution; male, Wistar, rat, Brain) was 5 min and the Kp (Tissue distribution; male, Wistar, rat, Brain) was 0.83. The k el (Tissue distribution; male, Wistar, rat, Brain) was 0.0004 s⁻¹, the Cmax (Tissue distribution; male, Wistar, rat, Heart) was 494 ng/g and the MRT (Tissue distribution; male, Wistar, rat, Heart) was 58.5 min. The Tmax (Tissue distribution; male, Wistar, rat, Heart) was 15 min, the Kp (Tissue distribution; male, Wistar, rat, Heart) was 0.38 and the k el (Tissue distribution; male, Wistar, rat, Heart) was 0.000283 s⁻¹. For the same compound, the Cmax (Tissue distribution; male, Wistar, rat, Kidneys) was 1950 ng/g, the MRT (Tissue distribution; male, Wistar, rat, Kidneys) was 25.3 min and the Tmax (Tissue distribution; male, Wistar, rat, Kidneys) was 5 min. For the same compound, the Kp (Tissue distribution; male, Wistar, rat, Kidneys) was 0.62, the k el (Tissue distribution; male, Wistar, rat, Kidneys) was 0.000717 s⁻¹ and the Cmax (Tissue distribution; male, Wistar, rat, Liver) was 161 ng/g. The MRT (Tissue distribution; male, Wistar, rat, Liver) was 113 min, the Tmax (Tissue distribution; male, Wistar, rat, Liver) was 5 min and the Kp (Tissue distribution; male, Wistar, rat, Liver) was 0.14. The k el (Tissue distribution; male, Wistar, rat, Liver) was 0.000283 s⁻¹, the Cmax (Tissue distribution; male, Wistar, rat, Lungs) was 4350 ng/g and the MRT (Tissue distribution; male, Wistar, rat, Lungs) was 46.9 min. For the same compound, the Tmax (Tissue distribution; male, Wistar, rat, Lungs) was 5 min, the Kp (Tissue distribution; male, Wistar, rat, Lungs) was 1.76 and the k el (Tissue distribution; male, Wistar, rat, Lungs) was 0.000383 s⁻¹. For the same compound, the “effect on the thermal pain threshold” value (mice; 10 mg/kg ip) was “no significant effect”, the “prolongation of nocifensive response” value (mice; 30 mg/kg ip) was 123% and the “prolongation of nocifensive response” value (mice; 100 mg/kg ip) was 177%. The “hot plate test: active at” value (mice; mice, ip) was 30 mg/kg, the IC50 (hNav1.3 sodium channel; 10 Hz) was 13.1 µM and the IC50 (hNav1.3 sodium channel; Inactivated state) was under 10 µM. The IC50 (hNav1.3 sodium channel; Tonic block) was 49.2 µM.
